These results are taken from the supplement of paper PMC10307832.

Common to all, as to experiment: relative viability (nuclei count vs DMSO), 5 days (fraction); higher = more cells survive
Compound in the assay “Vandetanib + Olaparib”: COc1cc2/c(=N/c3ccc(Br)cc3F)nc[nH]c2cc1OCC1CCN(C)CC1 [Vandetanib] + O=C(c1cc(Cc2n[nH]c(=O)c3ccccc23)ccc1F)N1CCN(C(=O)C2CC2)CC1 [Olaparib] (partner 8 µM)
The procedure, abridged:
(§1)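 Cells from lung cancer lines were seeded into 1536-well plates and, one day later, dosed by pin tool. Treatments were either a single drug or a fixed dose of an anchor drug with five library-drug doses (not always all listed) in √10 steps. After 5 days, nuclei were stained in a one-step fixation (final 0.05% Triton X-100, 1% formaldehyde, 1 ug/ml Hoechst) and counted on 4× images, and relative viability is the treated-to-vehicle nuclei ratio, as the median of duplicate plates.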

Compound in the assay “Vandetanib + OSI-027”: COc1cc2/c(=N/c3ccc(Br)cc3F)nc[nH]c2cc1OCC1CCN(C)CC1 [Vandetanib] + COc1cccc2cc(-c3nc([C@H]4CC[C@H](C(=O)O)CC4)n4ncnc(N)c34)[nH]c12 [OSI-027] (partner 0.5 µM)
Put shortly: as §1

Compound in assay [1]: C1=CC=C2C(=C1)N=C(S2)C(C#N)C3=NC(=NC=C3)NCCC4=CN=CC=C4 + Cc1nc(Nc2ncc(C(=O)Nc3c(C)cccc3Cl)s2)cc(N2CCN(CCO)CC2)n1 [Dasatinib] (partner 0.075 µM)
The procedure, abridged: as §1

Compound in the assay “CUDC-101 + Linsitinib”: C#Cc1cccc(Nc2ncnc3cc(OC)c(OCCCCCCC(=O)NO)cc23)c1 [CUDC-101] + C[C@]1(O)C[C@@H](c2nc(-c3ccc4ccc(-c5ccccc5)nc4c3)c3c(N)nccn32)C1 [Linsitinib] (partner 1 µM)
The procedure, abridged: as §1

For LU99A, the relative viability came to 0.251 with Vandetanib + Olaparib (first compound 0.02 µM); 0.301 with Vandetanib + Olaparib (first compound 0.06325 µM); 0.173 with Vandetanib + Olaparib (first compound 0.2 µM); 0.209 with Vandetanib + Olaparib (first compound 0.6325 µM); 0.272 with Vandetanib + Olaparib (first compound 2 µM); 0.267 in the assay with Vandetanib + OSI-027 (first compound 0.02 µM). The relative viability with Vandetanib + OSI-027 (first compound 0.06325 µM) is 0.314; with Vandetanib + OSI-027 (first compound 0.2 µM), 0.267; with Vandetanib + OSI-027 (first compound 0.6325 µM), 0.264; with Vandetanib + OSI-027 (first compound 2 µM) it was 0.317; in assay [1] (first compound 0.005 µM), 0.532; in assay [1] (first compound 0.01581 µM) it was 0.662. For the same cell line, the relative viability in assay [1] (first compound 0.05 µM) stood at 0.52; in assay [1] (first compound 0.1581 µM), 0.855; in assay [1] (first compound 0.5 µM) it was 0.767; with CUDC-101 + Linsitinib (first compound 0.01 µM), 0.565; with CUDC-101 + Linsitinib (first compound 0.03162 µM), 0.484; with CUDC-101 + Linsitinib (first compound 0.1 µM), 0.482. In addition, the relative viability in the assay with CUDC-101 + Linsitinib (first compound 0.3162 µM) was 0.54; with CUDC-101 + Linsitinib (first compound 1 µM), 0.242.

Consider LXF-289, for which the relative viability with Vandetanib + Olaparib (first compound 0.02 µM) is 1.01; with Vandetanib + Olaparib (first compound 0.06325 µM), 1.05; with Vandetanib + Olaparib (first compound 0.2 µM), 0.682; with Vandetanib + Olaparib (first compound 0.6325 µM), 1; with Vandetanib + Olaparib (first compound 2 µM), 1; in the assay with Vandetanib + OSI-027 (first compound 0.02 µM), 0.774. Further, the relative viability was found to be 0.708 in the assay with Vandetanib + OSI-027 (first compound 0.06325 µM); 0.877 in the assay with Vandetanib + OSI-027 (first compound 0.2 µM); 0.771 in the assay with Vandetanib + OSI-027 (first compound 0.6325 µM); 0.741 with Vandetanib + OSI-027 (first compound 2 µM); 0.152 in assay [1] (first compound 0.005 µM); 0.237 in assay [1] (first compound 0.01581 µM). For the same cell line, the relative viability was 0.209 in assay [1] (first compound 0.05 µM); 0.24 in assay [1] (first compound 0.1581 µM); 0.179 in assay [1] (first compound 0.5 µM); 0.989 with CUDC-101 + Linsitinib (first compound 0.01 µM); 1.04 with CUDC-101 + Linsitinib (first compound 0.03162 µM); 0.979 with CUDC-101 + Linsitinib (first compound 0.1 µM). In addition, the values for the relative viability with CUDC-101 + Linsitinib (first compound 0.3162 µM) and in the assay with CUDC-101 + Linsitinib (first compound 1 µM) were 0.992 and 0.781, respectively.

For NCI-H23, the relative viability with Vandetanib + Olaparib (first compound 0.02 µM) turned out to be 0.346; in the assay with Vandetanib + Olaparib (first compound 0.06325 µM), 0.275; in the assay with Vandetanib + Olaparib (first compound 0.2 µM), 0.328; in the assay with Vandetanib + Olaparib (first compound 0.6325 µM), 0.343; in the assay with Vandetanib + Olaparib (first compound 2 µM), 0.335; with Vandetanib + OSI-027 (first compound 0.02 µM) it was 0.513. The relative viability amounted to 0.559 with Vandetanib + OSI-027 (first compound 0.06325 µM); 0.573 with Vandetanib + OSI-027 (first compound 0.2 µM); 0.613 with Vandetanib + OSI-027 (first compound 0.6325 µM); 0.746 in the assay with Vandetanib + OSI-027 (first compound 2 µM); 0.645 in assay [1] (first compound 0.005 µM); 0.836 in assay [1] (first compound 0.01581 µM). Besides, the relative viability in assay [1] (first compound 0.05 µM) was 1.02; in assay [1] (first compound 0.1581 µM), 0.974; in assay [1] (first compound 0.5 µM) it was 0.993; with CUDC-101 + Linsitinib (first compound 0.01 µM) it was 0.667; with CUDC-101 + Linsitinib (first compound 0.03162 µM), 0.51; in the assay with CUDC-101 + Linsitinib (first compound 0.1 µM), 0.606. Besides, the relative viability with CUDC-101 + Linsitinib (first compound 0.3162 µM) was 0.661; with CUDC-101 + Linsitinib (first compound 1 µM) it was 0.435.

On to NCI-H322M, for which the relative viability in the assay with Vandetanib + Olaparib (first compound 0.02 µM) was 0.76; with Vandetanib + Olaparib (first compound 0.06325 µM) it was 0.709; with Vandetanib + Olaparib (first compound 0.2 µM), 0.718; in the assay with Vandetanib + Olaparib (first compound 0.6325 µM), 0.681; in the assay with Vandetanib + Olaparib (first compound 2 µM) it was 0.585; with Vandetanib + OSI-027 (first compound 0.02 µM), 0.573. The relative viability with Vandetanib + OSI-027 (first compound 0.06325 µM) was 0.551; in the assay with Vandetanib + OSI-027 (first compound 0.2 µM), 0.608; in the assay with Vandetanib + OSI-027 (first compound 0.6325 µM), 0.49; with Vandetanib + OSI-027 (first compound 2 µM), 0.422; in assay [1] (first compound 0.005 µM), 0.232; in assay [1] (first compound 0.01581 µM) it was 0.238. Also, the relative viability was found to be 0.23 in assay [1] (first compound 0.05 µM); 0.259 in assay [1] (first compound 0.1581 µM); 0.26 in assay [1] (first compound 0.5 µM); 0.882 in the assay with CUDC-101 + Linsitinib (first compound 0.01 µM); 0.76 with CUDC-101 + Linsitinib (first compound 0.03162 µM); 0.741 with CUDC-101 + Linsitinib (first compound 0.1 µM). Besides, the relative viability with CUDC-101 + Linsitinib (first compound 0.3162 µM) stood at 0.803; in the assay with CUDC-101 + Linsitinib (first compound 1 µM), 0.737.

On to NCI-H358, for which the relative viability came out at 0.552 with Vandetanib + Olaparib (first compound 0.02 µM); 0.527 with Vandetanib + Olaparib (first compound 0.06325 µM); 0.646 in the assay with Vandetanib + Olaparib (first compound 0.2 µM); 0.472 in the assay with Vandetanib + Olaparib (first compound 0.6325 µM); 0.319 with Vandetanib + Olaparib (first compound 2 µM); 0.706 in the assay with Vandetanib + OSI-027 (first compound 0.02 µM). The relative viability is 0.569 in the assay with Vandetanib + OSI-027 (first compound 0.06325 µM); 0.678 with Vandetanib + OSI-027 (first compound 0.2 µM); 0.504 with Vandetanib + OSI-027 (first compound 0.6325 µM); 0.307 in the assay with Vandetanib + OSI-027 (first compound 2 µM); 0.177 in assay [1] (first compound 0.005 µM); 0.155 in assay [1] (first compound 0.01581 µM). Moreover, the relative viability stood at 0.162 in assay [1] (first compound 0.05 µM); 0.178 in assay [1] (first compound 0.1581 µM); 0.245 in assay [1] (first compound 0.5 µM); 0.849 in the assay with CUDC-101 + Linsitinib (first compound 0.01 µM); 0.71 with CUDC-101 + Linsitinib (first compound 0.03162 µM); 0.793 with CUDC-101 + Linsitinib (first compound 0.1 µM). For the same cell line, the relative viability amounted to 0.646 with CUDC-101 + Linsitinib (first compound 0.3162 µM) and 0.323 with CUDC-101 + Linsitinib (first compound 1 µM).

For the cell line NCI-H441, the relative viability in the assay with Vandetanib + Olaparib (first compound 0.02 µM) is 0.498; with Vandetanib + Olaparib (first compound 0.06325 µM), 0.576; with Vandetanib + Olaparib (first compound 0.2 µM), 0.646; with Vandetanib + Olaparib (first compound 0.6325 µM) it was 0.658; with Vandetanib + Olaparib (first compound 2 µM), 0.616; with Vandetanib + OSI-027 (first compound 0.02 µM) it was 0.551. Besides, the relative viability is 0.619 in the assay with Vandetanib + OSI-027 (first compound 0.06325 µM); 0.713 with Vandetanib + OSI-027 (first compound 0.2 µM); 0.643 in the assay with Vandetanib + OSI-027 (first compound 0.6325 µM); 0.566 with Vandetanib + OSI-027 (first compound 2 µM); 0.663 in assay [1] (first compound 0.01581 µM); 0.638 in assay [1] (first compound 0.05 µM). Also, the relative viability came to 0.473 in assay [1] (first compound 0.1581 µM); 0.425 in assay [1] (first compound 0.5 µM); 0.748 with CUDC-101 + Linsitinib (first compound 0.01 µM); 0.662 with CUDC-101 + Linsitinib (first compound 0.03162 µM); 0.579 with CUDC-101 + Linsitinib (first compound 0.1 µM); 0.779 with CUDC-101 + Linsitinib (first compound 0.3162 µM). For the same cell line, in the assay with CUDC-101 + Linsitinib (first compound 1 µM), the relative viability is 0.358.

As for NCI-H460, the relative viability stood at 0.37 in the assay with Vandetanib + Olaparib (first compound 0.02 µM); 0.399 with Vandetanib + Olaparib (first compound 0.06325 µM); 0.336 with Vandetanib + Olaparib (first compound 0.2 µM); 0.45 with Vandetanib + Olaparib (first compound 0.6325 µM); 0.462 with Vandetanib + Olaparib (first compound 2 µM); 0.604 in the assay with Vandetanib + OSI-027 (first compound 0.02 µM). The relative viability with Vandetanib + OSI-027 (first compound 0.06325 µM) was found to be 0.611; with Vandetanib + OSI-027 (first compound 0.2 µM) it was 0.615; with Vandetanib + OSI-027 (first compound 0.6325 µM), 0.583; with Vandetanib + OSI-027 (first compound 2 µM) it was 0.586; in assay [1] (first compound 0.005 µM), 0.356; in assay [1] (first compound 0.01581 µM), 0.47. Moreover, the relative viability in assay [1] (first compound 0.05 µM) came to 0.451; in assay [1] (first compound 0.1581 µM) it was 0.732; in assay [1] (first compound 0.5 µM), 0.418; in the assay with CUDC-101 + Linsitinib (first compound 0.01 µM), 0.928; with CUDC-101 + Linsitinib (first compound 0.03162 µM), 0.648; with CUDC-101 + Linsitinib (first compound 0.1 µM) it was 0.901. The relative viability in the assay with CUDC-101 + Linsitinib (first compound 0.3162 µM) stood at 0.757; with CUDC-101 + Linsitinib (first compound 1 µM) it was 0.595.
